Results: ChEMBL document CHEMBL4513144, “CO-ADD screening of University of Central Lancashire (UK) compounds”
≈ marks a conversion by molar mass, not a printed value.

Key:
HEK293 = assay: cells; assay type: functional; details: Homo sapiens, ATCC CRL1573, HEK293; ASSAY_TEST Inhibition of Cell Viability; detection method Resazurin; Fluorescence (ex560/em590); MEDIA DMEM with 10% FBS; plate type 384well; TC; CORNING #3712; time 18 hr
Pseudomonas aeruginosa = assay: microbe, parasite or virus in culture; details: ATCC 27853, 18 h, ASSAY_TEST Inhibition of Bacterial Growth, detection method Absorption (OD600), MEDIA CAMHB, plate type 384well, NBS, CORNING #3640
Description: Antibacterial activity against Pseudomonas aeruginosa ATCC 27853 (CO-ADD:GN_042); MIC in CAMBH media using NBS plates, by OD(600)

Acinetobacter baumannii = assay: microbe, parasite or virus in culture; details: ATCC 19606, 18 h, ASSAY_TEST Inhibition of Bacterial Growth, detection method Absorption (OD600), MEDIA CAMHB, plate type 384well, NBS, CORNING #3640
Description: Antibacterial activity against Acinetobacter baumannii ATCC 19606 (CO-ADD:GN_034); MIC in CAMBH media using NBS plates, by OD600

Klebsiella pneumoniae = assay: microbe, parasite or virus in culture; details: ATCC 700603, 18 h, ASSAY_TEST Inhibition of Bacterial Growth, detection method Absorption (OD600), MEDIA CAMHB, plate type 384well, NBS, CORNING #3640
Description: Antibacterial activity against Klebsiella pneumoniae MDR ATCC 70063 (CO-ADD:GN_003); MIC in CAMBH media using NBS plates, by OD(600)

Escherichia coli = assay: microbe, parasite or virus in culture; details: ATCC 25922, 18 h, ASSAY_TEST Inhibition of Bacterial Growth, detection method Absorption (OD600), MEDIA CAMHB, plate type 384well, NBS, CORNING #3640
Description: Antibacterial activity against Escherichia coli ATCC 25922 (CO-ADD:GN_001); MIC in CAMBH media using NBS plates, by OD(600)

Candida albicans = assay: microbe, parasite or virus in culture; details: ATCC 90028, ASSAY_TEST Inhibition of Fungal Growth, detection method Absorption (OD530), plate type 384well, NBS, CORNING #3640
Description: Antifungal activity against Candida albicans ATCC 90028 (CO-ADD:FG_001); MIC in YNB media using NBS plates, by OD630

Staphylococcus aureus = assay: microbe, parasite or virus in culture; details: ATCC 43300, 18 h, ASSAY_TEST Inhibition of Bacterial Growth, detection method Absorption (OD600), MEDIA CAMHB, plate type 384well, NBS, CORNING #3640
Description: Antibacterial activity against Staphylococcus aureus MRSA ATCC 43300 (CO-ADD:GP_020); MIC in CAMBH media, using NBS plates, by OD(600)

Description for Cryptococcus neoformans: Antifungal activity against Cryptococcus neoformans H99 ATCC 208821 (CO-ADD:FG_002); MIC in YNB media using NBS plates, by Resazurin OD(600-570)

- MIC (Cryptococcus neoformans): > 32 µg/mL
- MIC (Pseudomonas aeruginosa): > 32 µg/mL
- MIC (Acinetobacter baumannii): > 32 µg/mL
- MIC (Klebsiella pneumoniae): > 32 µg/mL
- MIC (Escherichia coli): > 32 µg/mL
- MIC (Candida albicans): > 32 µg/mL
- MIC (Staphylococcus aureus): > 32 µg/mL
Compound: Oc1ccccc1-c1cc2ccccc2[nH]1 [2-(2'-HYDROXYPHENYL)-1H-INDOLE]
- CC50 (HEK293): 0.256 µg/mL (≈ 1.22 µM)
